US20210161837A1, “METHODS FOR TREATING CANCER WITH RORGAMMA INHIBITORS” (The Regents of the University of California, priority 2016, published 2021)

How the values were obtained:
[1] = test system: HCC1954; assay: Cell viability (CellTiter-GLO), 4 days, HER2-positive cells; assay type: cell-based; details: Homo sapiens, 96 h; HER2-positive HCC1954, 4 days
Description: (§1) For cell viability, cells were seeded in 96-well plates at 1500-2500 cells per well (optimum density for growth, depending on the specific cell line) in a total volume of 100 μl media. Serially diluted compounds in 100 μl of media were added to the cells 12 hours later. After 4 days of incubation, Cell-Titer GLO reagents (Promega) were added and luminescence was measured on GLOMAX microplate luminometer (Promega), according to the manufacturer's instructions. All experimental points were set up as sextuplicate as biological replication and the entire experiments were repeated three times. The data are presented as percentage of viable cells with vehicle treated cells set as 100. The estimated in vitro IC50 values were calculated using GraphPad Prism 6 software.

[2] = test system: prostate cancer C4-2B cells; assay: Cell viability (Cell-Titer GLO), 4 days, prostate cancer cells; assay type: cell-based, human
Description: The “No.” label for each compound corresponds to the “Structure No.” in Table 2 (e.g., “No. 36”=“Structure No. 36” in Table 2). Experiments were independently performed three times.
as §1

[3] = test system: HCC70 cells; assay: Cell viability (CellTiter-GLO), 4 days, TNBC cells; assay type: cell-based, human
Description: (§2) The “No.” label for each compound corresponds to the “Structure No.” in Table 2 (e.g., “No. 36”=“Structure No. 36” in Table 2). The cell viability curves were measured by CellTiter-GLO.
as §1, with “growth)” for “growth, depending on the specific cell line)”

[4] = test system: MDA-MB468 cells; assay: Cell viability (CellTiter-GLO), 4 days, TNBC cells; assay type: cell-based, human
Description: as §2
as §1, with “growth)” for “growth, depending on the specific cell line)”

## O=C(Cc1ccccc1[N+](=O)[O-])Nc1ccc(-c2ccc(C(O)(C(F)(F)F)C(F)(F)F)cc2F)cc1 [XY018, N-(2′-fluoro-4′-(1,1,1,3,3,3-hexafluoro-2-hydroxypropan-2-yl)-[1,1′-biphenyl]-4-yl)-2-(2-nitrophenyl)acetamide]
[1]
  IC50: 1470 nM
[2]
  inhibition of growth and survival: strongly inhibited the growth and survival
[3]
  inhibition of growth and survival: strongly inhibited the growth and survival
[4]
  inhibition of growth and survival: strongly inhibited the growth and survival
